Values of other authors, collected in patent US8609722B2, “Anesthetic composition for topical administration comprising lidocaine, prilocaine and tetracaine” (priority 2003, dated 2013).
Where a name gives a salt, the structure may show the parent alone.

What was measured:
erythrocyte heme protein = conditions: the very young may be more susceptible

CCCNC(C)C(=O)Nc1ccccc1C (centres unmarked) [prilocaine hydrochloride]
dose above which symptoms of methemoglobinaemia usually occur (erythrocyte heme protein): exceed 8 mg per kg body-weight | solubility in water: readily soluble in water
